In series [1] the target is T1, EC 3.5.1.27 PDF (Fe^2+) enzyme (Escherichia coli, UniProt P0A6K3).
T1 construct: made in house; host or cells: E. coli (overproducing cells)
T1 sequence (P0A6K3 1-169): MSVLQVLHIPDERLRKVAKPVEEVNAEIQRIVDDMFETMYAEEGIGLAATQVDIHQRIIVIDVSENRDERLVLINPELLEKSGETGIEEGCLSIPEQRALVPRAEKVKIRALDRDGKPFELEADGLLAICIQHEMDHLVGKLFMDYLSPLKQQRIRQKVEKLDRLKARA
The series can be described thus: Deformylation reactions with PDF (Fe^2+), free amino compound determined by TNBS. Type of series: biochemical, E. coli. The following applies: for yield (%) of deformylated product: 100 mM substrate, 0.2 mM PDF (Fe^2+), MES/KOH pH 6.2, 250 mM KCl, 37° C., after 10 hours; for inhibition of the PDF in the deformylation of F-α-AP and F-α-APM: presence of the β-form. Here is the method: An EC 3.5.1.27 PDF (Fe^2+) enzyme was isolated from overproducing E. coli cells grown at 30° C. in 1.6 l TB medium for 14-16 hours. […] After washing with 120 ml of 20 mM Hepes/KOH, 100 mM KF, 0.2 mM TCEP, pH 7.7, the PDF (Fe^2+) was eluted with 150 ml 20 mM Hepes/KOH, 100 mM KCl, 0.2 mM TCEP, pH 7.7. […] After adjustment of the TCEP concentration to 1 mM and protein concentration to 40 mg/ml PDF (Fe^2+) was stored frozen at −60° C.
Compounds (100 mM) as indicated in Table 2 for each separate Example were incubated in the presence of 100 mM aqueous 2-(N-morpholino)-ethanesulphonic acid (MES)/KOH buffer pH=6.2 and 250 mM KCl at 37° C. […] Following a brief centrifugation, the amount of deformylated compounds in the supernatant was determined by trinitrobenzene sulphonic acid (TNBS) according to the method of Fields (Methods in Enzymology, 25, 464-468 (1972)), using ε420=21.2 mM^−1 cm^−1. The amount of (deformylated) compound each time was corrected for the intrinsic amount of free amino compound which was detected without incubation with the PDF.
The product yields indicated are the yields after 10 hours of reaction time.
In addition, the catalytic properties of the PDF in the deformylation reactions of F-α-AP and F-α-APM (in particular the initial reaction rates for deformylation in resp. 1 hour for F-α-APM and 3 hours for F-α-AP) were determined by performing the reactions of Examples 1 and 2 at various substrate concentrations from 2-140 mM. In particular, the following catalytic properties of the enzyme were determined: […]

Another series concerns penicillin-acylase. To be noted: after 36 hours, 50 U of enzyme and 2 g of F-α-APM; cited from earlier work.
Series [2] has as its system immobilized penicillin-acylase. The series can be described thus: Comparative Example D: deformylation of F-α-APM with penicillin-acylase, TLC. Type of series: biochemical. To be noted: 1 g F-α-APM in 25 ml, 0.2 g enzyme preparation, pH 6,5, 37° C., 48 hours. How it is done: 1 g of F-α-APM was dissolved in 25 ml of distilled water and the pH was adjusted to 6,5 by the addition of 0.1 M aqueous NaOH. Then, 0.2 g of an immobilized penicillin-acylase preparation was added. The reaction mixture was allowed to stand for 48 hours at 37° C. At regular time intervals during the reaction, samples were taken and analyzed by thin layer chromatography using α-APM as a reference substance.

A short description of series [3]: Activity assay of isolated PDF (Fe^2+). To be noted: 5 mM formylmethionyl-alanine, 30° C., pH=7.2. Type of series: biochemical. Here is the method:
An EC 3.5.1.27 PDF (Fe^2+) enzyme was isolated from overproducing E. coli cells grown at 30° C. in 1.6 l TB medium for 14-16 hours. About 13 g (wet weight) of cell paste were suspended in 26 ml buffer (20 mM Hepes/KOH, 100 mM KF, pH 7.7 supplemented with 10 μg/ml catalase from bovine liver (Boehringer Mannheim) and 1 mM AEBSF, disintegrated by sonification (Branson B12, 20 min) at 0° C. and centrifuged at 200.000 g for 1 hour. The clear supernatant (1.3 g of protein; according to biurete reaction) was mixed with 1.3 ml 10% (w/v) Polymin G-35 (BASF) adjusted to pH 7.7 and centrifuged at 40.000 g for 10 minutes. The supernatant was applied to a 20 ml Met-Lys-Sepharose column that had been equilibrated with 20 mM Hepes/KOH, 100 mM KF, 0.2 mM TCEP, pH 7.7. After washing with 120 ml of 20 mM Hepes/KOH, 100 mM KF, 0.2 mM TCEP, pH 7.7, the PDF (Fe^2+) was eluted with 150 ml 20 mM Hepes/KOH, 100 mM KCl, 0.2 mM TCEP, pH 7.7. The protein containing fractions were concentrated by ultrafiltration using an Amicon PM10 membrane (yield: 140 mg protein, having an activity of 800 IU/mg; assay conditions: 5 mM formylmethionyl-alanine, 30° C., pH=7.2). After adjustment of the TCEP concentration to 1 mM and protein concentration to 40 mg/ml PDF (Fe^2+) was stored frozen at −60° C.

Substrate in series [4]: COC(=O)[C@H](Cc1ccccc1)NC(=O)[C@H](CC(=O)O)NC=O
The experiment in a line: Deformylation reactions with PDF (Fe^2+), free amino compound determined by TNBS. It counts as biochemical, E. coli. To be noted: other: substrate concentrations 2-140 mM, initial reaction rates.

Substrate in series [5]: O=CN[C@@H](CC(=O)N[C@@H](Cc1ccccc1)C(=O)O)C(=O)O
The series is described as above. Type of series: biochemical, E. coli. The following applies: other: PDF (Fe^2+), pH 6.2, 37° C.

Substrate in series [6]: O=CN[C@@H](CC(=O)O)C(=O)N[C@@H](Cc1ccccc1)C(=O)O
The series is described as above. Type of series: biochemical, E. coli. The following applies: other: substrate concentrations 2-140 mM, initial reaction rates.

Substrate in series [7]: COC(=O)[C@H](Cc1ccccc1)NC(=O)C[C@H](NC=O)C(=O)O
The series is described as above. Type of series: biochemical, E. coli. To be noted: other: PDF (Fe^2+), pH 6.2, 37° C.

Residues, ends and D or L forms follow the SMILES beside them. *: point of attachment. For = O=C*

Consider seven molecules from patent US6617127B2, “Synthesis and recovery of aspartame involving enzymatic deformylation step” (Holland Sweetener Company, V.O.F., priority 1998, dated 2003).

As usually defined, the Km is the concentration of substrate that gives half-maximal velocity. For orientation: kcat means the maximal rate divided by the concentration of active sites. As a reminder, the kcat/Km is the second-order rate constant that governs catalysis at low substrate concentration.

`O=CN[C@@H](CC(=O)O)C(=O)O` [F-Asp, N-formyl-L-aspartic acid]: the “yield (%) of deformylated product” value in series [1] is listed as 0.5%.

For `O=CN[C@@H](CC(=O)N[C@@H](Cc1ccccc1)C(=O)O)C(=O)O` [F-β-AP, N-formyl-β-L-aspartyl-L-phenylalanine], in series [1], the “yield (%) of deformylated product” value is 1.1%; the “inhibition of the PDF in the deformylation of F-α-AP and F-α-APM” value was “does not give any inhibition”.

As to `O=CN[C@@H](CC(=O)O)C(=O)N[C@@H](Cc1ccccc1)C(=O)O` [F-α-AP, N-formyl-α-L-aspartyl-L-phenylalanine] (For-Asp-Phe-OH), in series [1], the “yield (%) of deformylated product” value is given as 21.6%.

Regarding `COC(=O)[C@H](Cc1ccccc1)NC(=O)[C@H](CC(=O)O)NC=O` [F-α-APM, N-formyl-α-L-aspartyl-L-phenylalanine methyl ester] (For-Asp-Phe-OMe), in the series on penicillin-acylase, the yield of deformylation is reported as 20%. In series [2], the “formation of α-APM from F-α-APM” value is “In none of the samples taken, formation of α-APM from F-α-APM could be demonstrated”. Besides, in series [1], the “yield (%) of deformylated product” value came to 44.2%.

With `COC(=O)[C@H](Cc1ccccc1)NC(=O)C[C@H](NC=O)C(=O)O` [F-β-APM, N-formyl-β-L-aspartyl-L-phenylalanine methyl ester], in series [1], the “yield (%) of deformylated product” value turned out to be 0.2%; the “inhibition of the PDF in the deformylation of F-α-AP and F-α-APM” value is recorded as “does not give any inhibition”.

B1: PDF (Fe^2+): EC 3.5.1.27 formylmethionyl peptide deformylase with Fe^2+ co-factor, isolated from overproducing E. coli cells (protein, UniProt P0A6K3 2-169, looked up)
Peptide deformylase: SVLQVLHIPDERLRKVAKPVEEVNAEIQRIVDDMFETMYAEEGIGLAATQVDIHQRIIVIDVSENRDERLVLINPELLEKSGETGIEEGCLSIPEQRALVPRAEKVKIRALDRDGKPFELEADGLLAICIQHEMDHLVGKLFMDYLSPLKQQRIRQKVEKLDRLKARA
modifications: Fe2+ cofactor
notes: EC 3.5.1.27 formylmethionyl peptide deformylase with Fe^2+ co-factor, isolated from overproducing E. coli cells
In the case of B1, the “activity of the enzyme” value in series [3] is listed as 800 IU/mg.

B2: EC 3.5.1.27 PDF (Fe^2+) enzyme (Escherichia coli K-12) (protein)
chain: T1 sequence (P0A6K3 1-169)
notes: made in house; host or cells: E. coli (overproducing cells)
With B2, the Michaelis-Menten constant (Km) in series [4] is listed as 25.3 mM; in series [6], 12.3 mM. Moreover, the figures for the turnover number (kcat) in series [4] and in series [6] were 0.0117 s⁻¹ and 0.00333 s⁻¹, respectively. Besides, the kcat/Km in series [4] was 0.46 M⁻¹ s⁻¹; in series [5], < 0.0001 M⁻¹ s⁻¹; in series [6] it was 0.27 M⁻¹ s⁻¹; in series [7], < 0.0001 M⁻¹ s⁻¹.
